The results in this text go back to patent EP2924039A1, “2-Amino-1-phenyl-pyrrolo[3,2-b]quinoxaline-3-carboxamide derivates” (Universität Zürich, priority 2014, dated 2015).

In general, IC50 refers to the concentration at which inhibition is half-maximal. In general, GI50 refers to the concentration that inhibits growth by half. High values mean lower sensitivity of the cells, low ones greater sensitivity of the cells.

In one experiment the target is T1, full-length human EphB4 (Homo sapiens, UniProt P54760).
T1 construct: stably transfected to overexpress full-length human EphB4; host or cells: Mouse embryonic fibroblast cells
T1 sequence (P54760 16-987): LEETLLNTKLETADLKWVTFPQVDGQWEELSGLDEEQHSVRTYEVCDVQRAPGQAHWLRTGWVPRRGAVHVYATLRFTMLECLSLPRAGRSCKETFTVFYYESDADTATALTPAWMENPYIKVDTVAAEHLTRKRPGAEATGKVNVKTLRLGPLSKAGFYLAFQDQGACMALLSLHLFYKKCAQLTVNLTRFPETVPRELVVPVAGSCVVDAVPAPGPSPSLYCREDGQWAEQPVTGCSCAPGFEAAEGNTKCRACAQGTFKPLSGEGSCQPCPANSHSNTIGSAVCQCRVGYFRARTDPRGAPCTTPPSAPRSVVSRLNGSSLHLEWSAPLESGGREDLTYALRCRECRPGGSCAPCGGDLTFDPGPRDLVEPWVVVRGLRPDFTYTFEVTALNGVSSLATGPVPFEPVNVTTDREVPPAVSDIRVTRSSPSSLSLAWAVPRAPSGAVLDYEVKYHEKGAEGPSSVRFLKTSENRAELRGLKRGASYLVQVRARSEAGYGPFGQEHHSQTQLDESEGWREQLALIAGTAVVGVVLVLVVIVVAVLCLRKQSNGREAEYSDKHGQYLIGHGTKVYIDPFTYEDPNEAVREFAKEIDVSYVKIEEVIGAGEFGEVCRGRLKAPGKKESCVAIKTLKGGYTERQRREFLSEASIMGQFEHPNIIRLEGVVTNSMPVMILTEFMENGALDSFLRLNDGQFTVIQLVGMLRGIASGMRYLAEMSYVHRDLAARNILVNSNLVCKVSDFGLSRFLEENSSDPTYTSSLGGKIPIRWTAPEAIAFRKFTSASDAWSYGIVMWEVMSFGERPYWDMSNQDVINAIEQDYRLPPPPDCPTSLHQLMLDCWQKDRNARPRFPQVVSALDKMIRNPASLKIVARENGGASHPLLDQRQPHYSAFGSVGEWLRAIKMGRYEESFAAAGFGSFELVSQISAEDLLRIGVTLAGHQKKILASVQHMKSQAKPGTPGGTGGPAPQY
As to the kind of experiment: Cellular phosphorylation assay (sandwich ELISA, ProQinase). It is filed as cell-based. As to conditions: mouse embryonic fibroblast cells overexpressing EphB4, stimulated with murine ephrinB2-Fc, read-out: cell IC50. The procedure: Cellular phosphorylation assays: The cellular phosphorylation experiments were performed at ProQinase GmbH. Mouse embryonic fibroblast cells, stably transfected to overexpress full-length human EphB4, were plated at 4×10^4 cells/well in DMEM supplemented with 10% FCS in 48-well culture dishes. Medium was replaced by DMEM without FCS before test compounds prediluted in 100% DMSO were added (final DMSO concentration of 1 %). After incubation for 90 min at 37 °C, cells were stimulated for 2 h at 4 °C using murine ephrinB2-Fc at a final concentration of 2 µg/ml. Quantification of EphB4 phosphorylation was assessed in a 96-well plate via sandwich ELISA using a myc capture antibody and an antiphosphotyrosine detection antibody. Table 4: Cell IC50 (µmol/l) in cells overexpressing EphB4

The test system of another experiment is K-562 leukemia cells. Description: Cell culture and GI50 determination (resazurin), K-562. As to conditions: Homo sapiens, K562, K-562, 48 hour incubation. In kind it is cell-based. The method, then:
(§1) Krek (Institute of Cell Biology, ETH Zurich) were cultured in Dulbelcco's modified Eagle's medium (DMEM) supplemented with 10% (v/v) fetal bovine serum. K562 leukemia cells obtained from Dr. Silvio Hemmi (Institute of Molecular Life Sciences, UZH) were cultured using RPMI medium supplemented with 5% (v/v) fetal bovine serum. All the media was additionally supplemented with 100 units/mL of penicillin, 100µg/mL of streptomycin, 4.5 g/L glucose, 0.11g/L sodium pyrubate and 2mM glutamine and the cells were grown at 37°C in 5% CO2 atmosphere with 80% relative humidity.
After 24 hours, 12.5 µL of a 10 fold concentrated drug or DMSO solution in RMPI media was added in every well. After 48 hour incubation, cell viability was studied by measuring the ability of the cells to process resazurin.

The subject of experiment [1] is A498 (kidney cancer) cells. As to the kind of experiment: Cell culture and GI50 determination (resazurin), A-498. It is filed as cell-based. As to conditions: Homo sapiens, A-498, 48h incubation. The procedure: as §1
(§2) The old media was removed, the cells were washed with PBS (phosphate-buffered saline) and fresh media was added. […] Control cells were treated with the same DMSO concentrations. […] After 3 hours, the fluorescence was quantified using a fluorescence microplate reader (Biotek, FLx800™) at the respective excitation and emission wavelength of 560 and 590 nm. Resazurin becomes fluorescent under mitochondrial reduction and its emission directly correlates with the metabolic stability of the cells. […] All measurements were performed at least in triplicate (see table 1).
(Resazurin is reduced to fluorescent resorufin, in cell work by metabolically active cells.)

The test system of experiment [2] is panel of 456 protein kinases. As to the kind of experiment: Selectivity profiling at DiscoveRx (KinomeScan). In kind it is binding. As to conditions: 1 µM compound; for one or more of the protein kinases listed. The method, then: The selectivity profiling of compounds 10c, 10d, 10n and 10o were performed at DiscoveRx in a library of 456 kinases at a concentration of 1 µM. Briefly, kinases were mostly expressed as fusion proteins to […] and grown in 24-well blocks in E. Coli (derived from the BL21 strain). The rest of the kinases were expressed in HEK-293 cells and tagged with DNA for qPCR detection. Affinity resins were generated by mixing streptavidin-coated magnetic beads with biotinylated small molecule ligands for 30 minutes at 25 °C, followed by biotin and blocking buffer addition (SeaBlock (Pierce), 1 % BSA, 0.05 % Tween 20, 1 mM DTT). Inhibitors were kept at 40x stocks in 100% DMSO and added to the corresponding 384-well plates (40 µL). […] The kinase concentration present in the eluate was determined by qPCR. For further details, see Fabian, et. al., Nat. Biotechnol., 2005, 23 (3), 329-33.

Experiment [3] deals with HOP-92 (lung cancer) cells. Description: Cell culture and GI50 determination (resazurin), HOP-92. It is filed as cell-based. As to conditions: Homo sapiens; HOP-92, resazurin. The method, then:
as §1, §2

In another experiment the test system is HT-29. Description: Cell culture and GI50 determination (resazurin), HT-29. In kind it is cell-based. To be noted: Homo sapiens; HT-29, resazurin. The method, then: as §2
Experiment [4] concerns MDA-MB-231 (breast cancer) cells. Description: Cell culture and GI50 determination (resazurin), MDA-MB-231. As to conditions: Homo sapiens, MDA-MB-231, 72 h. In kind it is cell-based. The method, then:
as §1, §2

The subject of experiment [5] is KM12 (colon cancer) cells. Description: Cell culture and GI50 determination (resazurin), KM12. It is filed as cell-based. As to conditions: Homo sapiens. The procedure: as §1, §2
Another experiment concerns the target T2, EphA3 (Homo sapiens, UniProt P29320).
T2 construct: A clone of EphA3 kinase domain (residues: 606-947); made in house; host or cells: Escherichia coli BL21 (DE3)
T2 sequence (P29320 606-947): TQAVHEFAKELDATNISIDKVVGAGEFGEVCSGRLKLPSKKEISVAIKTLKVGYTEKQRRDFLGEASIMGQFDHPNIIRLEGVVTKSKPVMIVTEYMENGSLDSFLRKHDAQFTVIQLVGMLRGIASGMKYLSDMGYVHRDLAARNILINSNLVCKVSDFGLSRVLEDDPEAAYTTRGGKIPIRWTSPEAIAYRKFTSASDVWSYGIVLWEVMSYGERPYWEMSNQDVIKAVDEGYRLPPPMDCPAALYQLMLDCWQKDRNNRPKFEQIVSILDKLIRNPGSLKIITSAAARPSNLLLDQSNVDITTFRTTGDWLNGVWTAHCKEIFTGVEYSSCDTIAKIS
As to the kind of experiment: Differential Scanning Fluorimetry. It is filed as binding. To be noted: 2 µM EphA3, compound 20µM; read-out: Delta Tm. The procedure: Cell pellets were resuspended in buffer A (50mM Tris, pH 8.0 and 100mM NaCl, supplemented with protease inhibitors) and lysed by sonication. After centrifugation at 15,000 rpm for 1 h, the soluble fraction of EphA3 was purified using […] (GE healthcare), followed by gel filtration chromatography (Superdex75; GE healthcare). The appropriate fractions were combined and concentrated to ~10 mg/mL using Amicon filter devices (10kDa as cutoff) in a storage solution (100mM sodium chloride and 10mM Tris-HCl pH 8.0, 5% glycerol). The resulting solution was aliquoted and stored at -80°C for further usage.
A final volume of 40µL was added per well in a 96 well plate and incubated at room temperature for 1 h. The plates were centrifuged for 3 min at 450 rcf. The temperature gradient was performed in the range of 25°C-75°C (50 acquisitions per degree at a ramp rate of 4.4°C/s) using a LightCycler 480 Real-Time PCR System. […] All measurements were performed in triplicate.
Background: Differential scanning fluorimetry follows unfolding on heating by fluorescence.

Turning to `Cc1ccc(-n2nc(C(C)(C)C)cc2NC(=O)Nc2ccc(-n3c(N)c(C(N)=O)c4nc5ccccc5nc43)cc2)cc1` [Compound 10o], the IC50 on full-length human EphB4 turned out to be 370 nM. The GI50 worked out at 20 nM with K-562 leukemia cells; 1000 nM in experiment [1]; 1480 nM in [3]; 780 nM in the experiment on HT-29; 980 nM in [4]; 210 nM in experiment [5]. In addition, the “control binding to the kinase in presence of the compound relative to control binding in absence of the compound” value in experiment [2] was “less than 10% of control”. The ΔTm at 20 µM at EphA3 is 17.3 °C.
